Counter-ions that a name gives are not always drawn. Like-named read-outs stand apart in the source and are kept apart here.
Legend:
rat = test: Rat tail flick assay (tail flick latency in response to heat); type: in vivo; conditions: read-out: % MPE (Maximum Possible Effect), tail flick
Text: The Tail Flick Assay, based upon the methods of D'Amour & Smith (J. Pharmacol. Exp. Therap., 72: 74-79, 1941), is used to measure loss of pain sensation in the rat tail, allowing the experimenter to screen drugs for analgesic effect. Since then, the method has been used in a number of publications. For example, it was used to evaluate the analgesic effect of O-alkyl derivatives of tramadol by Liming Shao and Michael Hewitt etc. (Boiorganic & Medicinal Chemistry Letters, 18:1674-1680, 2008).
A Tail Flick Unit is used to measure tail flick latency in response to heat. The unit consists of an infrared (I.R.) source (50 W bulb) with adjustable intensity that is focused through a flush mounted window on the upper panel of the unit and onto the rat tail. Once I.R. source is focused on the rat tail and turned on, a timer starts. When the thermal threshold for pain is reached and the rat flicks its tail, the I.R source automatically shuts off and the timer stop, displaying the latency time.
On the day of experiment, the animals are tested to determine baseline latency. Each rat is given one test to determine latency to tail flick with a cut off 10 seconds. Baselines are recorded and those animals with a baseline latency of 2-5 seconds are used in the experiment. Animals are divided into several groups according to the baseline latency. The Tail-flick latencies are measured at different timepoints for up to 180 minutes after administration of vehicle or test articles. If treatment group continues to display pain control after 180 minutes, additional measurements are taken every 60 minutes until pain control is no longer observed.
I.R. Source is set at 40 units (determined to elicit tail flick response in desired 2-5 seconds in naïve animals).
Test articles or vehicle are administered by intravenous (IV) injection through the tail vein or by oral gavage at time 0. Animals are gently restrained and held on top of a tail flick unit. The tail is then wiped clean with a cotton square and placed over the I.R. source so that the beam is focused at approximately midway the length of the tail. After the rat is in position, the I.R. source is turned on. When the thermal threshold for pain is reached, the rat flicked its tail and the I.R. source automatically shuts off. Latency time (in seconds) is then recorded.
Data are recorded and graphed as % MPE (Maximum Possible Effect). % MPE is calculated using the following formula: % MPE=[(Test latency−Baseline latency)/(Cut off latency(10 sec.'s)−Baseline latency)]*100
Compounds were administered by the IV route in 20% 2-hydroxypropyl-beta-cyclodextrin (20% HP-β-CD). The dose levels of test article were 2.5, 5, or 20 mg/kg. Examples 2, 3, 13, 40, 77, 78, 114, and Tramadol provided at least 50% MPE at 20 mg/kg. Compounds 5, 8, 17, 105, 107, 148, 158, and 159 provided at least 50% MPE at 5 mg/kg. Compounds 82, 84, and 116 provided at least 50% MPE at 2.5 mg/kg.
Compounds were administered by oral gavage in 0.5% methylcellulose at 20 or 30 mg/kg. Examples 2, 3, 13, 115, and Tramadol provided at least 50% MPE at 30 mg/kg. Compounds 5, 39, 65, 106, and 115 provided at least 50% MPE at 20 mg/kg.

Unspecified bioassay(s) = conditions: comparison of the two enantiomers of Example 181
[1] = oral gavage in 0.5% methylcellulose

Compound: COc1cccc([C@]2(O)[C@@H](CN(C)C)CC[C@@H]3C[C@@H]32)c1 (stereo in doubt) [Example 148, 3-Dimethylaminomethyl-2-(3-methoxy-phenyl)-bicyclo[4.1.0] heptan-2-ol]
- inhibition in vivo at 5 mg/kg (rat; IV in 20% HP-β-CD): ≥ 50%

Compound: CN(C)C[C@H]1[C@H]2CC[C@H](C2)C[C@H]1c1cccc(O)c1 (stereo in doubt) [Example 114, 3-(2-dimethylaminomethyl-bicyclo[3.2.1]oct-3-yl)-phenol]
- inhibition in vivo at 20 mg/kg (rat; IV in 20% HP-β-CD): ≥ 50%

Compound: CN(C)C[C@H]1C2CC[C@@H](C2)C[C@]1(O)c1cc(OC(=O)C(C)(C)C)ccc1F [Example 65, 2,2-dimethyl-propionic acid 3-(2-dimethylaminomethyl-3-hydroxy-bicycle[3.2.1]oct-3-yl)-4-fluoro-phenyl ester]
- inhibition in vivo at 20 mg/kg (rat; [1]): ≥ 50%

Compound: COc1cccc(C2=C[C@H]3CC[C@H](C3)[C@@H]2CN(C)C)c1 (stereo in doubt) [Example 78, [3-(3-Methoxy-phenyl)-bicyclo[3.2.1]oct-3-en-2-ylmethyl]-dimethyl-amine]
- inhibition in vivo at 20 mg/kg (rat; IV in 20% HP-β-CD): ≥ 50%

Compound: CN(C)C[C@H]1C2CC[C@@H](C2)C[C@]1(O)c1cc(O)ccc1F (stereo in doubt) [Example 39, 2-dimethylaminomethyl-3-(2-fluoro-5-hydroxy-phenyl)-bicyclo[3.2.1]octan-3-ol]
- inhibition in vivo at 20 mg/kg (rat; [1]): ≥ 50%

Compound: CN(C)C[C@@H]1C(c2cc(O)cc(F)c2)=C[C@H]2CC[C@@H]1C2 (stereo in doubt) [Example 82, 3-(4-Dimethylaminomethyl-bicyclo[3.2.1]oct-2-en-3-yl)-5-fluoro-phenol]
- inhibition in vivo at 2.5 mg/kg (rat; IV in 20% HP-β-CD): ≥ 50%

Compound: COc1cccc([C@@H]2C[C@H]3CC[C@H](C3)[C@@H]2CN(C)C)c1 (stereo in doubt) [Example 115, [3-(3-methoxy-phenyl)-bicyclo[3.2.1]oct-2-ylmethyl]-dimethyl-amine]
- inhibition in vivo at 20 mg/kg (rat; [1]): ≥ 50%
- inhibition in vivo at 30 mg/kg (rat; [1]): ≥ 50%

Compound: COc1cccc(C2(O)CCCCC2CN(C)C)c1 (centres unmarked) [Tramadol, reference compound]
- inhibition in vivo at 20 mg/kg (rat; IV in 20% HP-β-CD): ≥ 50%
- inhibition in vivo at 30 mg/kg (rat; [1]): ≥ 50%

Compound: CN(C)C[C@H]1CC[C@@H]2C[C@@H]2[C@]1(O)c1cc(O)ccc1F (stereo in doubt) [Example 158, 3-Dimethylaminomethyl-2-(2-fluoro-5-hydroxy-phenyl)-bicyclo[4.1.0] heptan-2-ol]
- inhibition in vivo at 5 mg/kg (rat; IV in 20% HP-β-CD): ≥ 50%

Compound: COc1cccc([C@@]2(O)C[C@H]3CCC(C3)[C@@H]2CN(C)C)c1 (stereo in doubt) [Example 2, 2-dimethylaminomethyl-3-(3-methoxy-phenyl)-bicyclo[3.2.1]octan-3-ol]
- inhibition in vivo at 20 mg/kg (rat; IV in 20% HP-β-CD): ≥ 50%
- inhibition in vivo at 30 mg/kg (rat; [1]): ≥ 50%

Compound: CN(C)C[C@H]1[C@@H]2CC[C@@H](C2)C[C@]1(O)c1cc(O)cc(F)c1 (stereo in doubt) [Example 40, 2-Dimethylaminomethyl-3-(3-fluoro-5-hydroxy-phenyl)-bicyclo[3.2.1]octan-3-ol]
- inhibition in vivo at 20 mg/kg (rat; IV in 20% HP-β-CD): ≥ 50%

Compound: CN(C)C[C@@H]1C(c2cc(F)cc(OC(=O)C(C)(C)C)c2)=C[C@H]2CC[C@@H]1C2 [Example 107, 2,2-Dimethyl-propionic-acid 3-(4-dimethyl-aminomethyl-bicyclo[3.2.1]oct-2-en-3-yl)-5-fluoro-phenyl ester]
- inhibition in vivo at 5 mg/kg (rat; IV in 20% HP-β-CD): ≥ 50%

Compound: CN(C)C[C@H]1[C@@H]2CC[C@@H](C2)C[C@H]1c1cc(O)cc(F)c1 (stereo in doubt) [Example 116, 3-(2-dimethylaminomethyl-bicyclo[3.2.1]oct-3-yl)-5-fluoro-phenol]
- inhibition in vivo at 2.5 mg/kg (rat; IV in 20% HP-β-CD): ≥ 50%

Compound: CN(C)C[C@H]1[C@@H]2CC[C@@H](C2)C[C@]1(O)c1cccc(O)c1 (stereo in doubt) [Example 13, 2-Dimethylaminomethyl-3-(3-hydroxy-phenyl)-bicyclo[3.2.1]octan-3-ol]
- inhibition in vivo at 20 mg/kg (rat; IV in 20% HP-β-CD): ≥ 50%
- inhibition in vivo at 30 mg/kg (rat; [1]): ≥ 50%

Compound: CN(C)C[C@@H]1C(c2cccc(OC(=O)c3ccccc3)c2)=C[C@H]2CC[C@@H]1C2 (stereo in doubt) [Example 106, Benzoic acid 3-(4-dimethylaminomethyl-bicyclo[3.2.1]oct-2-en-3-yl)-phenyl ester]
- inhibition in vivo at 20 mg/kg (rat; [1]): ≥ 50%

Compound: CN(C)C[C@@H]1C(c2cccc(O)c2)=C[C@@H]2CC[C@H]1C2 (stereo in doubt) [Example 77, 3-(4-dimethylaminomethyl-bicyclo[3.2.1]oct-2-en-3-yl)-phenol]
- inhibition in vivo at 20 mg/kg (rat; IV in 20% HP-β-CD): ≥ 50%

Compound: COc1cc(F)cc([C@@]2(O)C[C@H]3CC[C@H](C3)[C@@H]2CN(C)C)c1 (stereo in doubt) [Example 3, 2-Dimethylaminomethyl-3-(3-fluoro-5-methoxy-phenyl)-bicyclo[3.2.1]octan-3-ol]
- inhibition in vivo at 20 mg/kg (rat; IV in 20% HP-β-CD): ≥ 50%
- inhibition in vivo at 30 mg/kg (rat; [1]): ≥ 50%

Compound: Cc1cc(O)cc([C@]2(O)[C@@H](CN(C)C)CC[C@@H]3C[C@@H]32)c1 (stereo in doubt) [Example 159, 3-Dimethylaminomethyl-2-(3-hydroxy-5-methyl-phenyl)-bicyclo[4.1.0] heptan-2-ol]
- inhibition in vivo at 5 mg/kg (rat; IV in 20% HP-β-CD): ≥ 50%

Compound: COc1ccc(F)c([C@@]2(O)C[C@H]3CC[C@H](C3)[C@@H]2CN(C)C)c1 [Example 17, 2-Dimethylamino-methyl-3-(2-fluoro-5-methoxy-phenyl)-bicyclo[3.2.1]octan-3-ol hydrochloride]
- inhibition in vivo at 5 mg/kg (rat; IV in 20% HP-β-CD): ≥ 50%

Compound: CN(C)C[C@@H]1C(c2cc(O)ccc2F)=C[C@H]2CC[C@@H]1C2 (stereo in doubt) [Example 84, 3-(4-Dimethylaminomethyl-bicyclo[3.2.1]oct-2-en-3-yl)-4-fluoro-phenol]
- inhibition in vivo at 2.5 mg/kg (rat; IV in 20% HP-β-CD): ≥ 50%

Compound: COc1cc(C)cc([C@@]2(O)C[C@H]3CC[C@H](C3)[C@@H]2CN(C)C)c1 (stereo in doubt) [Example 8, 2-Dimethylaminomethyl-3-(3-methoxy-5-methyl-phenyl)-bicyclo[3.2.1]octan-3-ol]
- inhibition in vivo at 5 mg/kg (rat; IV in 20% HP-β-CD): ≥ 50%

Compound: CN(C)C[C@H]1[C@H]2CC[C@H](C2)C[C@]1(O)c1cccc(O)c1 [(+)-Enantioisomers, (+)-(1S,2R,3R,5R)-2-((dimethylamino)methyl)-3-(3-hydroxyphenyl)bicyclo[3.2.1]octan-3-ol]
- biological activity in bioassay(s) (Unspecified bioassay(s)): better biological activity than (−)-enantioisomer

Compound: COc1ccc(F)c([C@@]2(O)C[C@H]3CC[C@H](C3)[C@@H]2CN(C)C)c1 (stereo in doubt) [Example 5, 2-Dimethylaminomethyl-3-(2-fluoro-5-methoxy-phenyl)-bicyclo[3.2.1]octan-3-ol]
- inhibition in vivo at 20 mg/kg (rat; [1]): ≥ 50%

Compound: CN(C)C[C@@H]1C(c2cccc(OC(=O)C(C)(C)C)c2)=C[C@@H]2CC[C@H]1C2 (stereo in doubt) [Example 105, 2,2-dimethyl-propionic acid 3-(4-dimethylaminomethyl-bicyclo[3.2.1]oct-2-en-3-yl)-phenyl ester]
- inhibition in vivo at 5 mg/kg (rat; IV in 20% HP-β-CD): ≥ 50%

— patent publication US8802728B2, “Analgesic compounds, methods, and formulations” (Eli Lilly and Company, priority 2011, dated 2014)
